Experimental data from publication PMC2895764 (Journal of molecular biology, 2010).

Legend:
NIH 3T3 cell = test: Reactivation of K-ras-mediated epigenetic silencing of Fas gene; type: cell-based
G9a-like protein (GLP) = conditions: cited from earlier work

With `COc1cc2nc(N3CCCN(C)CC3)nc(NC3CCN(Cc4ccccc4)CC3)c2cc1OC` [BIX-01294] as the compound, how does the “reactivation (derepression) of Ras-mediated epigenetic silencing of Fas” value (NIH 3T3 cell) read?
Its value is “derepressed”.

What about the “IC50 against GLP” value (G9a-like protein (GLP)) of the same compound?
Its value is “low μM range”.

Which “reactivation (derepression) of Ras-mediated epigenetic silencing of Fas” value (NIH 3T3 cell) does the source give for `Nc1ncn([C@H]2C[C@H](O)[C@@H](CO)O2)c(=O)n1` [5-aza, 5-aza-2′-deoxycytidine] here?
The value was “derepressed”.
